Measurements taken from article PMC5555576, “Selective small-chemical inhibitors of protein arginine methyltransferase 5 with anti-lung cancer activity” (PLoS ONE, 2017).
Values joined by “and” are separate entries in the source; they are usually repeats but may differ in a detail not shown here. Equal values may be shown once. Read-outs that look alike come from different tables or passages of the source. One block for each molecule: values may come before it.

Assays:
PRMT5 [1] = details: cited from earlier work; for selectivity for PRMT5: versus PRMT1, CARM1, or PRMT7
PRMT5 [2] = molecular target: T1, PRMT5 (Homo sapiens, UniProt O14744); assay: Radioactive methyltransferase assay, PRMT5; assay type: biochemical; details: methylation of SmD3 by PRMT5; Table 1 prints no unit, μM; read-out: IC50
T1 construct: His6; made in house; host or cells: E. coli BL21(ED3) [sic]
Procedure: (§1) Methylation reactions were performed as previously described with a few modifications. Reaction mixtures (40 μl) containing 1.2 μg of PRMT5, 98 ng of PRMT1 or 98 ng of PRMT3; 2 μg of SmD3 or histones; 1 μCi of S-[methyl-^3H]adenosylmethionine (H^3-AdoMet; PerkinElmer); and 5 μM AdoMet were incubated in 50 mM Tris-HCl (pH 7.5)–1 mM EGTA–1 mM EDTA at 30°C for 2 h. Reaction mixtures (20 μl) were boiled in 5 μl of 5x SDS sample buffer and separated on a 15% polyacrylamide gel. Gels were fixed for 30 min in 40% methanol–10% acetic acid, incubated in 20 ml of Amplify (Amersham Life Science) for 10 min, dried and exposed to X-ray film at -80°C. IC50 was calculated by linear regression analysis of percent inhibition. The other half (20 μl) of each reaction mixture was spread onto DE81 chromatography paper discs (Whatman). The paper discs were washed 4 times with 50 mM NaHCO3 and dried. The amounts of methylated products were quantified by liquid scintillation.
In vitro methylation reactions were performed with recombinant PRMT5 (1.2 μg), PRMT1 ([…]) or PRMT3 (89 ng); [H^3]-AdoMet; and different substrates in the presence of identified compounds. […] The recombinant SmD3 (2 μg) was used as the substrate in the absence (lane 2) or presence of 1, 10 or 100 μM compounds as indicated. Reaction mixtures were separated on an SDS–15% polyacrylamide gel and the gel was dried under vacuum and exposed to film. […] Recombinant histones H4 or H2A (1 μg) were used as substrates of PRMT5 in the methylation assay in the absence or presence of 100 μM compounds as indicated. Reaction mixtures were spread onto DE81 chromatography paper discs. After a wash, the amounts of methylated products on discs were quantified by liquid scintillation. […] PRMT1 was incubated with purified histones (1 μg) or recombinant E2F1 (1 μg) as substrates in the absence (lane 2) or presence of 100 μM compounds as indicated. Reaction mixtures were separated on an SDS–15% polyacrylamide gel and the gel was dried and exposed to film.

A549 cells = assay: Cellular permeability and stability by HPLC of cell extracts; assay type: in vitro ADME; details: 2 hr in medium with compound
Procedure: Waters 2695 HPLC System and a C18 column (Symmetry, 3.6 x 75 mm) were used. The column was equilibrated with 10% acetonitrile and eluated with a linear gradient from 10% acetonitrile to 100% acetonitrile in 60 min. Compounds were dissolved in 10% acetonitrile and the purchased compounds (ChemBridge) were used as the standards.
We then determined whether the identified compounds are cell-permeable. Lung cancer A549 cells were cultured in medium containing various concentrations of the respective compound for 2 hr. Cells were harvested and washed with PBS. The compounds were extracted with ethyl acetate from cells and analyzed by HPLC with a C18 column using the purchased compound as the standard. Compounds C2, C5, C9 and C11 are cell-permeable (Fig 6A), which is consistent with their tPSAs <140 angstroms square (Table 1). […] We even noticed that the compound C5 crystalized inside the cells.
A, The cellular permeability of identified compounds. Lung cancer A549 cells were cultured in the presence of various concentrations of compounds for 2h and the compound concentrations in the cell were determined by HPLC chromatography with a C18 column. B, The cellular stability of identified compounds. Lung cancer A549 cells were cultured in the presence of compounds (20 μM) for 2 h and then the medium was removed. Cells were washed with the medium and cultured for additional 5 or 10 h after the compounds were removed. The compound concentrations in the cell were determined by HPLC chromatography with a C18 column. […] A549 cells were grown in the presence of DMSO or compound C5, C9 or C11 (20 μM). Histones were purified and analyzed by SDS-PAGE stained with Commassie blue (lanes 1–4, bottom) or by Western blot with anti-symmetric dimethyl arginine antibody (SYM10) (lanes 1–4, top). B-Raf was immunoprecipitated with anti-B-Raf antibody from whole cell lysates and submitted for Western blot analysis with anti-B-Raf (lanes 5 and 6, bottom) or anti-symmetric dimethyl arginine (lanes 5 and 6, top) antibody.

PRMT5 [3] = molecular target: T1, PRMT5; assay: Steady-state kinetic analysis of PRMT5 inhibition (time-dependent inhibition assay); assay type: biochemical
Procedure: Different amounts of compound C2 or C5 were present in the final methylation reaction mixtures with 1.2 μg of PRMT5, 5 μM AdoMet, 2 μCi of H^3-AdoMet and various concentrations of SmD3. After a 10-, 20- or 30-min incubation at 30 °C or no incubation, the reaction mixtures were spread onto DE81 chromatography paper discs and the amounts of methylated products were quantified by liquid scintillation. Amounts (counts per minute [cpm]) of methylated products and incubation time (minutes) were plotted and reaction velocity (cpm per minute) was deduced.
To understand the mechanism of inhibition of identified compounds, we analyzed the kinetic pattern of inhibition using steady-state enzymatic measurements. The velocities of PRMT5 methylation of SmD3 were measured at several selected concentrations of compounds C2 and C5 over a range of SmD3 concentrations. Plotted in the double-reciprocal format with 1/velocity versus 1/[SmD3]
Fig 5 Steady-state kinetic analysis of PRMT5 inhibition by compounds C2 and C5. Double-reciprocal plot of reaction velocities (cpm per minute) versus concentrations of SmD3. Methylation reaction mixtures contained various concentrations of C2 (left) or C5 (right), various concentrations of SmD3, 1.2 μg of PRMT5 and 5 μM AdoMet. The mixtures were incubated for different times and the amounts of methylated products were quantified using DE81 paper and liquid scintillation. Reaction velocity was calculated as H^3 incorporation (cpm) into SmD3 per minute.

PRMT5 F225M [4] = molecular target: T2, PRMT5 F225M (Homo sapiens, UniProt O14744, F327M); assay: Radioactive methyltransferase assay, mutant PRMT5; assay type: biochemical; details: F225M mutant PRMT5, SmD3 substrate, Fig 4D
T2 construct: His6; made in house; host or cells: bacteria (E. coli BL21(ED3) for the wild type)
Procedure: as §1
(§2) The inhibitory activity of the compounds may stem from this interaction. To test this possibility, we conducted site-directed mutagenesis to mutate Phe225 in human PRMT5 (corresponding to Phe379 in the C. elegans PRMT5) to Met. The mutated PRMT5 was expressed in bacteria and purified by Ni-nitrilotriacetic acid (Ni-NTA) affinity chromatography (Fig 4A). The activity of the mutant PRMT5 was examined by the radioactive methyltransferase assay. […] The IC50 values for the mutant PRMT5 increased from 4.3 to 183 folds higher than those for the wild type PRMT5 (Fig 4D). […] The results also can help explain the specificity of the compounds to PRMT5. However, the contribution of this interaction to inhibition varies among the compounds. For example, compound C2 interacts with three amino acid residues (Lys451, Glu450, and Phe379) (Fig 3A) with the mutation of Phe to Met resulting in a 50-times higher IC50 (Fig 4C and 4D).
(§3) Fig 4 The conserved phenylalanine residue in PRMT5 is critical for inhibition by the five compounds. A, DS-PAGE of recombinant wild type (WT) and F225M mutant (MT) PRMT5. The gel was stained with Coomassie Brilliant Blue R250. A band corresponding to an unknown bacterial protein is indicated (star). B, The F225M mutation increased the methytransferase activity of PRMT5. In vitro methylation reactions were performed with recombinant wild type (lanes 2–4) or mutant (lanes 5–7) PRMT5 (1.2, 2.4 or 4.8 μg) and SmD3 (2 μg) as the substrate. C, The F225M mutation in PRMT5 decreased inhibition of arginine methylation by the compounds. The reaction mixture contained SmD3 (2 μg); wild type or mutant PRMT5 (1.2 μg); and 1, 10 or 100 μM compounds as indicated. D, The F225M mutation in PRMT5 […] of the compounds, as determined by quantitation and analysis of methylation assay results. TEXT PRINTED IN THE PICTURE: (D) C2: IC50 (μM) PRMT5: 0.1; IC50 (μM) PRMT5 F225M: 5.0 | (D) C5: IC50 (μM) PRMT5: 0.8; IC50 (μM) PRMT5 F225M: 3.5 | (D) C6: IC50 (μM) PRMT5: 0.5; IC50 (μM) PRMT5 F225M: 7.0 | (D) C9: IC50 (μM) PRMT5: 6.0; IC50 (μM) PRMT5 F225M: 45.0 | (D) C11: IC50 (μM) PRMT5: 0.3; IC50 (μM) PRMT5 F225M: 55.0

PRMT5 F225M [5] = assay: Radioactive methyltransferase assay, mutant PRMT5; assay type: biochemical, human; details: Phe225 to Met
Procedure: as §1, §2, §3

[6] = tested on: PRMT5-target genes in A549 cells; assay: Real-time PCR of PRMT5-regulated genes; assay type: cell-based; details: 50 μM, 24 hrs
Procedure: We identified a set of genes whose expression was altered by silencing PRMT5 expression in lung cancer A549 cells. A549 cells were treated with C9a and EPZ015666 and expression of 6 identified PRMT5-regulated genes was analyzed. […] The future study would use genome-wide approach to determine genes whose expression is affected by PRMT5 inhibitors.
Supplementary file pone.0181601.s005.tif: S5 Fig PRMT5 inhibitors selectively affect PRMT5-target genes in lung cancer cells. RNAs were isolated from cells cultured in the presence of DMSO, EPZ015666 (Sigma-Aldrich) (50 μM), or C9a (50 μM) for 24 hrs and submitted to RT-RCR analysis of gene expression in cancer cell lines. Relative mRNA levels = mRNA in cells treated with PRMT5-inhibtor/mRNA in DMSo-treated cells. (TIF) Click here for additional data file.

MCL xenograft models = tested on: MCL xenograft models; parameters: method as in PMID 25915199; details: cited from earlier work
[7] = tested on: CDK4/6 (Rb pS811) in A549 cells; assay: Western blot of Rb phosphorylation at S811; assay type: cell-based; details: 20 μM, 4 h
Excerpt: The retinoblastoma protein (Rb) is phosphorylated by CKDs in cells.
(TIF) Click here for additional data file.

[8] = single replicate, vs control, actin-normalised, listed as EPZ

T1 sequence (O14744 whole entry): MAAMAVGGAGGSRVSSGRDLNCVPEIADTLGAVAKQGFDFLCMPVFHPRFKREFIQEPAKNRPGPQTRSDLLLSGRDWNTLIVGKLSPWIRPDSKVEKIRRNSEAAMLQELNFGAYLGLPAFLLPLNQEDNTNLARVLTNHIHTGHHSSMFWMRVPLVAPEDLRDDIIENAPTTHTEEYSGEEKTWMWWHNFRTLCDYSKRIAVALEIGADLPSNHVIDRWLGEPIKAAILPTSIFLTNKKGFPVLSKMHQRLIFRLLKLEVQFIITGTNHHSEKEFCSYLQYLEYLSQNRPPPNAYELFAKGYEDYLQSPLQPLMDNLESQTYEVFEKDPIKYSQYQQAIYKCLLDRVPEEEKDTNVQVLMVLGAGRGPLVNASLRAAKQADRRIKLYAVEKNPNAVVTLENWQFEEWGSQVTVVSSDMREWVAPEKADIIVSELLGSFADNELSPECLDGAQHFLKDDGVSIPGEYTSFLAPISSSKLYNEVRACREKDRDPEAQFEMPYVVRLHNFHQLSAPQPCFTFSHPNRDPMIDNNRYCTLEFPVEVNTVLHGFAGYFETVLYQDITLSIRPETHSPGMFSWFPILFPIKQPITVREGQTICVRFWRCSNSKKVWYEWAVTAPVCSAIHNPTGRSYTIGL
T2 sequence (O14744 whole entry F327M): as the sequence (O14744 whole entry) above, with F327M counted along it

Structure (SMILES): CCn1c2ccccc2c2cc(CNCc3ccccn3)ccc21 [CMP5]
selectivity for PRMT5 (PRMT5 [1]): specifically inhibited PRMT5 rather than PRMT1, CARM1, or PRMT7

IC50 (PRMT5 [2]): 0.5 µM
Structure (SMILES): COc1nc(Nc2ccc(-c3nc4ccccc4o3)cc2)nc(OC)n1 [Compound C1]

IC50 (PRMT5 [2]): 0.1 µM | cell permeability (A549 cells): cell-permeable | mode of inhibition with regard to SAM (PRMT5 [3]): not competitive inhibitors | mode of inhibition with regard to the SmD3 substrate (PRMT5 [3]; double-reciprocal plot): competitive inhibitors | IC50 (PRMT5 F225M [4]): 5 µM | increase of IC50 for mutant PRMT5 over wild type PRMT5 (PRMT5 F225M [5]): 50 fold
Structure (SMILES): Cc1ccnc(NC(=O)c2ccc(COc3ccc(Cl)cc3)o2)c1 [Compound C2]

IC50 (PRMT5 [2]): 0.6 µM
Structure (SMILES): Nc1c(C(=O)Nc2ccccc2)sc2nc3c(cc12)CCC3 [Compound C4]

IC50 (PRMT5 [2]): 0.5 µM | cell permeability (A549 cells): not cell-permeable | IC50 (PRMT5 F225M [4]): 7 µM
Structure (SMILES): CCc1ccc(-c2cn3c4ccccc4nc3n2CCN2CCOCC2)cc1 [Compound C6]

IC50 (PRMT5 [2]): 2.5 µM
Structure (SMILES): O=C(Nc1nccs1)c1ccc(COc2ccc(F)cc2)o1 [Compound C7]

Structure (SMILES): CCNC(=O)NCCSC[C@H]1O[C@@H](n2cnc3c(N)ncnc32)[C@H](O)[C@@H]1O [DS-437]
IC50 (PRMT5 [1]; AdoMet competitor, cofactor-binding site): 6 µM

Structure (SMILES): O=C(NC[C@H](O)CN1CCc2ccccc2C1)c1cc(NC2COC2)ncn1 [EPZ015666, reference compound]
EXPRESSION FOLD CHANGE avg BTG2 ([6]; average): […] | EXPRESSION FOLD CHANGE avg FGFR1 ([6]; average): […] | EXPRESSION FOLD CHANGE avg FOXO3 ([6]; average): […] | EXPRESSION FOLD CHANGE avg GLIPR1 ([6]; average): […] | EXPRESSION FOLD CHANGE avg PTTG1 ([6]; average): […] | EXPRESSION FOLD CHANGE avg TIGAR ([6]; average): […] | EXPRESSION FOLD CHANGE BTG2 [6, 8]: […] | EXPRESSION FOLD CHANGE FGFR1 [6, 8]: […] | EXPRESSION FOLD CHANGE FOXO3 [6, 8]: […] | EXPRESSION FOLD CHANGE GLIPR1 [6, 8]: […] | EXPRESSION FOLD CHANGE PTTG1 [6, 8]: […] | EXPRESSION FOLD CHANGE TIGAR [6, 8]: […] | IC50 (PRMT5 [1]): […] | antitumor activity (MCL xenograft models): demonstrated antitumor activity in multiple MCL xenograft models

Structure (SMILES): CCn1c2ccccc2c2cc(CNCc3ccccc3OC)ccc21.Cl [HLCL-61]
selectivity for PRMT5 (PRMT5 [1]): specifically inhibited PRMT5 rather than PRMT1, CARM1, or PRMT7

Structure (SMILES): CC(=O)c1c(C)c2cnc(Nc3ccc(N4CCNCC4)cn3)nc2n(C2CCCC2)c1=O [Palbociclib, reference compound]
Rb phosphorylation at the site S811 by CDK4/6 [7]: inhibited
